In patent publication US20110262508A1, “ANTIMICROBIAL COMPOSITIONS, FORMULATIONS AND USES THEREOF” (priority 2007, published 2011):
≈ marks a conversion by molar mass, not a printed value. Read-outs that look alike come from different tables or passages of the source. Blank lines part the entries; values can stand above or below the molecule they belong to. Square brackets hold non-standard residues; d marks the D form. Peptide text beside a SMILES is read from it.

Tested on: A. baumannii
Type: cell-based
Description: Broth dilution methods are e.g., described by Lorian (2007) In: Antibiotics in Laboratory Medicine, Fifth Edition; and In: Clinical and Laboratory Standards Institute, CLSI (formerly NCCLS), In: Methods for Dilution Antimicrobial Susceptibility Tests for Bacteria that Grow Aerobically—Approved Standard—Seventh Edition, CLSI document M7-A7, Villanova, Pa. (NCCLS; January 2006; Vol. 26 No. 2); and In: Clinical and Laboratory Standards Institute, CLSI (formerly NCCLS), Performance Standards for Antimicrobial Susceptibility Testing, Seventeenth Informational Supplement, M100-S17, Vol 27 No. 1 January 2007, all of which are incorporated herein by reference.
The present inventors used such methods to quantitate activity in vitro of antimicrobial peptides of the invention against bacterial isolates, including laboratory strains and 50 clinical isolates of A. baumannii, and S. aureus ATCC Accession No. 2992. Briefly, small volumes of broth are dispensed in sterile, plastic microtiter trays, and 100 μl of serially-diluted antimicrobial peptide (0.1-64 μg) and 100 μl test organism (approximately 1×10^5 C.F.U.), are added. Following aerobic incubation overnight at 35±2° C. Control samples lacked peptide (Growth control), or lacked peptide and bacteria (Sterility control). The trays were examined visually and the minimal inhibitory concentration (MIC) of peptide required to inhibit bacterial growth were determined. The minimum bactericidal concentration (MBC) was estimated by sub-culturing the wells for which no bacterial growth was visible to the naked eye, to thereby determine a concentration of antimicrobial that reduces the original inoculum by at least about 99.9%.

- MIC (μM) for amidated peptide: 5 µM
- MIC (μM) for non-amidated Peptide: 15 µM
SMILES: CC(C)C[C@@H](NC(=O)[C@@H](CCCNC(=N)N)NC(=O)[C@H](N)Cc1ccc(O)cc1)C(=O)N[C@H](CC(C)C)C(=O)N[C@H](CCCNC(=N)N)C(=O)N[C@H](CCCCN)C(=O)N[C@@H](C(=O)N[C@@H](C(=O)N[C@H](Cc1ccccc1)C(=O)N[C@H](CS)C(=O)N[C@H](CC(C)C)C(=O)N[C@H](CCCCN)C(=O)N[C@@H](C(=O)N[C@H](CO)C(=O)N[C@H](CC(C)C)C(=O)N[C@@H](C(=O)N[C@H](CCCCN)C(=O)N1CCC[C@@H]1C(=O)N[C@H](Cc1ccccc1)C(=O)N[C@H](Cc1c[nH]cn1)C(=O)N[C@H](Cc1ccccc1)C(=O)N[C@H](Cc1ccc(O)cc1)C(=O)N1CCC[C@@H]1C(=O)O)[C@H](C)O)[C@H](C)O)[C@H](C)O)[C@H](C)O [Ac5r] (H-[dY][dR][dL][dL][dR][dK][dT][dT][dF][dC][dL][dK][dT][dS][dL][dT][dK][dP][dF][dH][dF][dY][dP]-OH; N-terminus and C-terminus assumed)

- MIC: 30 µM (≈ 81.4 µg/mL)
SMILES: CC[C@H](C)[C@H](NC(=O)[C@H](CS)NC(=O)[C@H](CS)NC(=O)[C@H](CCCNC(=N)N)NC(=O)[C@H](CC(=O)O)NC(=O)[C@H](CO)NC(=O)[C@H](CC(C)C)NC(=O)[C@H](CCCNC(=N)N)NC(=O)[C@H](CCCNC(=N)N)NC(=O)[C@H](CC(C)C)NC(=O)[C@H](Cc1ccccc1)NC(=O)CNC(=O)[C@H](CO)NC(=O)[C@@H]1CCCN1C(=O)[C@H](Cc1c[nH]c2ccccc12)NC(=O)[C@@H](NC(=O)[C@@H]1CCCN1)C(C)C)C(=O)N[C@@H](Cc1c[nH]cn1)C(=O)N[C@@H](CO)C(=O)N[C@@H](CCCNC(=N)N)C(=O)N[C@@H](CCC(N)=O)C(=O)N[C@@H](C)C(=O)N[C@@H](CCC(N)=O)C(=O)O [Ac329] (H-PVWPSGFLRRLSDRCCIHSRQAQ-OH; N-terminus and C-terminus assumed)
- MBC: 39 µM (≈ 106 µg/mL)

SMILES: CSCC[C@H](NC(=O)[C@H](CC(C)C)NC(=O)[C@H](CCCCN)NC(=O)[C@H](CCCCN)NC(=O)[C@@H](NC(=O)[C@@H](NC(=O)[C@H](C)NC(=O)[C@H](Cc1ccccc1)NC(=O)[C@H](Cc1ccc(O)cc1)NC(=O)CNC(=O)[C@H](CS)NC(=O)[C@H](Cc1c[nH]cn1)NC(=O)[C@@H]1CCCN1C(=O)CNC(=O)CN)[C@@H](C)O)[C@@H](C)O)C(=O)N[C@@H](CCCNC(=N)N)C(=O)N[C@@H](CCCCN)C(=O)N[C@H](C(=O)N1CCC[C@H]1C(=O)NCC(=O)N[C@@H](CCCNC(=N)N)C(=O)N[C@@H](CC(C)C)C(=O)N[C@H](C(=O)O)C(C)C)C(C)C [Ac330] (H-GGPHCGYFATTKKLMRKVPGRLV-OH; N-terminus and C-terminus assumed)
- MIC (A. baumannii (Table 8)): 20 µM (≈ 50.3 µg/mL)
- MBC (A. baumannii (Table 8), reduces original inoculum by at least about 99.9%): 40 µM (≈ 101 µg/mL)
- MIC (μM) for non-amidated Peptide (non-amidated peptide, strongly inhibitory against A. baumannii (Table 7)): 20 µM

- MIC: 30 µM (≈ 78.2 µg/mL)
SMILES: CC[C@H](C)[C@H](NC(=O)[C@H](CCCNC(=N)N)NC(=O)[C@H](CCCNC(=N)N)NC(=O)[C@H](CC(C)C)NC(=O)[C@H](CC(=O)O)NC(=O)[C@H](CCC(=O)O)NC(=O)[C@H](CCCNC(=N)N)NC(=O)[C@H](CC(C)C)NC(=O)[C@H](CCCNC(=N)N)NC(=O)CNC(=O)[C@H](CO)NC(=O)[C@H](Cc1ccccc1)NC(=O)[C@@H](NC(=O)[C@H](CC(C)C)NC(=O)[C@@H](NC(=O)CNC(=O)[C@H](Cc1ccccc1)NC(=O)[C@@H](NC(=O)[C@@H](NC(=O)CNC(=O)CN)C(C)C)C(C)C)C(C)C)[C@@H](C)O)C(=O)N[C@@H](CS)C(=O)N[C@@H](CCCNC(=N)N)C(=O)O [Ac338] (H-GGVVFGVLTFSGRLREDLRRICR-OH; N-terminus and C-terminus assumed)
- MBC: 30 µM (≈ 78.2 µg/mL)
